Measurements reported in patent publication US20160038519A1, “ADMINISTRATION OF KARENITECIN FOR THE TREATMENT OF ADVANCED OVARIAN CANCER, INCLUDING CHEMOTHERAPY-RESISTANT AND/OR THE MUCINOUS ADENOCARCINOMA SUB-TYPES” (BioNumerik Pharmaceuticals, Inc., priority 2014, published 2016).
pIC50: −log10 of the molar value. Read-outs that look alike come from different tables or passages of the source.

Tested on: COV644 Cell Line
Test: SRB cytotoxicity assay, COV644
Type: cell-based, human
Description: In vitro studies were conducted in human mucinous ovarian cancer cell lines including JHOM2B, OMC3, and COV644. In one series of experiments, the dose response curves for BNP1350 (also known as Karenitecin), SN-38 (Irinotecan), and Topotecan were obtained and IC50 values were determined. In a second series of experiments, the effect of BNP7787 (2,2′-dithio-bis-ethane sulfonate; Tavocept) on BNP1350-induced cytotoxicity at selected BNP1350 concentrations was examined.
The JHOM2B and OMC3 cell lines were purchased from Riken Cell Bank (Japan). The COV644 cell line was purchased from SigmaAldrich. Cells were maintained as monolayered cultures in T-75 flasks and then seeded to microtiter plate wells for experiments. Population doubling-times for these three cell lines were long (i.e., exceeding 40 hours, and for some of the cell lines approaching 96 hours); therefore, the Applicants conducted initial pilot experiments and determined optimal seeding density to obtain A570 values in untreated controls that would fall within the linear range of the SRB assay after seven (7) total days of cell growth. JHOM2B cells were cultured in DMEM:F12 (1:1)+0.1 mM non-essential amino acids (NEAA)+10% FBS and were seeded at 6,000 cells per well. OMC3 cells were cultured in HamF12+10% FBS and were seeded at 8,000 cells per well. COV644 cells were cultured in DMEM+2 mM glutamine+10% FBS and were seeded at 6,000 cells per well.
The cells were manipulated in a Microzone laminar flow hood traditionally used for maintaining aseptic environments around automated instrumentation such as microplate robots, and the like. Cells were grown and maintained at 37° C. in a humidified atmosphere containing 5% CO2 in a water jacketed cell culture incubator (Forma Scientific). Cells were counted using a ViCell counter (Beckman-Coulter). An automated plate washer/stacker (ELx405/BioStak from BioTek Instruments) and a microplate reader (SpectraMax Plus from Molecular Devices) were used for conducting the SRB assay and determining A570 values for wells in the plates and the percentage of control values. Prior to SRB assays, cell viability was monitored by evaluation of microtiter plate wells. Dead cells detach and float while living cells remain attached to the bottom of the cell well.
SN-38 (Irinotecan; Sigma H0165, lot MKBQ4981) and Topotecan (Sigma T2705, lot 052M4728V) were purchased from SigmaAldrich. BNP1350 (lot KN-C192-135) and BNP7787 (lot 205001) were synthesized at BioNumerik Pharmaceuticals, Inc. (San Antonio, Tex.). BNP1350, SN38, and Topotecan were prepared as 2.5, 2.5, and 25 mM stocks in DMSO (ATCC, cell culture grade).
The sulforhodamine B (SRB) cytotoxicity assay was used to assess cell survival. Briefly, after the medium was decanted from individual plate wells, trichloroacetic acid (100 μL of 10.0 percent solution) was added to each well, and the plates were incubated at 4° C. for 1 hour. The plates were washed five times with water using an automated microplate washer (Model ELx405, Bio-Tek Instruments), SRB solution (100 μL of 0.4% SRB dissolved in 1.0 percent acetic acid) was added, and plates remained at room temperature for 15 minutes. The plates were then washed five times using acetic acid (1.0 percent), air dried, and bound dye was solubilized in Tris base (150 μL, 10 mM). Plates were agitated (gently) for 5 minutes and the absorbance values of the SRB dye-protein adduct at 570 nanometers (A570) were determined using an automated microtiter plate reader (SpectraMax Plus, Molecular Devices). IC50 values were extrapolated from dose response curves of the data using OriginLab Software.
The 1050 values exceeded the solubility in medium for each compound—the limit of solubility in cell culture medium for the compounds were as follows: 2 micromolar for BNP1350 and SN38, and 20 micromolar for Topotecan. Cells were treated for periods of 2.5 hours or 6 hours and, in each case, the […] values were not reached. Longer treatments were not performed.

Measured: pIC50

CC[C@@]1(O)C(=O)OCc2c1cc1n(c2=O)Cc2c-1nc1ccccc1c2CC[Si](C)(C)C [Karenitecin, (4S)-4-ethyl-4-hydroxy-11-[2-(trimethylsilyl)ethyl]-1H-pyrano[3′:4′:6,7]indolizino[1,2-b]quinoline-3,14(4H,12H)-dione]
< 5.70: Homo sapiens, 2, 5, and 6 hour drug exposures, did not reach 50% of Control, read-out: IC50, Test 1 (2 replicate plates) | Homo sapiens, 2, 5, and 6 hour drug exposures, did not reach 50% of Control, read-out: IC50, Test 2 (2 to 3 replicate plates) | Homo sapiens, 2, 5, and 6 hour drug exposures, read-out: IC50, Average | Homo sapiens, read-out: IC50 values
